In patent US12077503B2, “Substituted cyclic amides and their use as herbicides” (FMC CORPORATION, priority 2015, dated 2024):

Assays:
Assay type in all cases: in vivo
[1] = tested on: ryegrass, Italian (Italian ryegrass, Lolium multiflorum); assay: Test A preemergence
In short: (§1)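 Each rating is a visual injury score from 0 to 100 given about 10 d after treatment, judged against untreated controls kept alongside in the greenhouse. In loam soil–sand blend, seeds got a preemergence directed soil spray, while postemergence plants were 2 to 10 cm tall at spraying.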

[2] = tested on: ragweed (common ragweed, Ambrosia elatior); assay: Test A preemergence
In short: as §1

[3] = tested on: barnyardgrass (Echinochloa crus-galli); assay: Test A preemergence
In short: as §1

[4] = tested on: giant foxtail (Setaria faberii); assay: Test A preemergence
In short: as §1

[5] = tested on: pigweed (Amaranthus retroflexus); assay: Test A preemergence
Kochia (Kochia scoparia) [6] = assay: Test A preemergence
In short: as §1

[7] = tested on: barnyardgrass (Echinochloa crus-galli); assay: Test B flooded paddy test; conditions: Flood, 250 g ai/ha; 0 to 100 scale where 0 is no effect and 100 is complete control; 13 to 15 d
In short: (§2)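 Compound goes directly into floodwater once pots are flooded 3 cm above soil, targeting plants at two leaves; the water depth is then held for the test duration. Plants sit 13–15 d in a greenhouse and are rated visually, 100 denoting complete control.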

rice (Oryra sativa) = assay: Test B flooded paddy test; conditions: Flood, 250 g ai/ha; 0 to 100 scale where 0 is no effect and 100 is complete control; 13 to 15 d
In short: as §2

[8] = tested on: ducksalad (Heteranthera limosa); assay: Test B flooded paddy test; conditions: Flood, 250 g ai/ha; 0 to 100 scale where 0 is no effect and 100 is complete control; 13 to 15 d
In short: as §2

[9] = tested on: sedge, umbrella (small-flower umbrella sedge, Cyperus difformis); assay: Test B flooded paddy test; conditions: Flood, 250 g ai/ha; 0 to 100 scale where 0 is no effect and 100 is complete control; 13 to 15 d
In short: as §2

[10] = tested on: blackgrass (Alopecurus myosuroides); assay: Test A postemergence; conditions: postemergence
In short: as §1

[11] = tested on: ryegrass, Italian (Italian ryegrass, Lolium multiflorum); assay: Test A postemergence; conditions: postemergence
In short: as §1

[12] = tested on: ragweed (common ragweed, Ambrosia elatior); assay: Test A postemergence; conditions: postemergence
In short: as §1

[13] = tested on: barnyardgrass (Echinochloa crus-galli); assay: Test A postemergence; conditions: postemergence
In short: as §1

[14] = tested on: giant foxtail (Setaria faberii); assay: Test A postemergence; conditions: postemergence
In short: as §1

corn (Zea mays) = assay: Test A postemergence; conditions: postemergence
In short: as §1

[15] = tested on: wheat (Triticum aestivum); assay: Test A postemergence; conditions: postemergence
In short: as §1

[16] = tested on: Galium (catchweed bedstraw, Galium aparine); assay: Test A postemergence; conditions: postemergence
In short: as §1

[17] = tested on: pigweed (Amaranthus retroflexus); assay: Test A postemergence; conditions: postemergence
In short: as §1

Kochia (Kochia scoparia) [18] = assay: Test A postemergence; conditions: postemergence
In short: as §1

[19] = tested on: lambsquarters (Chenopodium album); assay: Test C preemergence; conditions: scale 0 to 100, 0 no effect, 100 complete control
In short: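 Assessment: visual, 13–15 d after treatment, 0 (no effect) to 100 (complete control) relative to controls. Treatment: preemergence to seeds in loam-sand soil, or postemergence to 1- to 4-leaf plants in peat-based medium. Formulation: non-phytotoxic solvent mixture with surfactant.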

[20] = 125 g ai/ha, preemergence, 0 to 100 scale (0 no effect, 100 complete control)
[21] = Preemergence, 500 g ai/ha, visual injury approx. 10 d
[22] = 125 g ai/ha, visual injury rating on 0 to 100 scale (0 no effect, 100 complete control), approx. 10 d
[23] = 500 g ai/ha, 0 to 100 scale, 0 no effect, 100 complete control

With `CN1CC(c2cccc(OC(F)(F)C(F)F)c2)C(C(=O)Nc2ccccc2C(F)(F)F)C1=O` (stereo not shown) [Compound 431] the “Plant response rating, Ryegrass, Italian” value [1, 20] was 70, the “Ryegrass, Italian plant response rating (0 to 100 scale, 0 is no effect, 100 is complete control)” value [1, 21] was 70 and the “Plant response rating, Ragweed” value [2, 20] was 40. For the same compound, the “Ragweed plant response rating (0 to 100 scale, 0 is no effect, 100 is complete control)” value [2, 21] was 70, the “Plant response rating, Barnyardgrass” value [3, 20] was 90 and the “Barnyardgrass plant response rating (0 to 100 scale, 0 is no effect, 100 is complete control)” value [3, 21] was 90. For the same compound, the “Plant response rating, Foxtail, Giant” value [4, 20] was 90, the “Foxtail, Giant plant response rating (0 to 100 scale, 0 is no effect, 100 is complete control)” value [4, 21] was 100 and the “Plant response rating, Pigweed” value [5, 20] was 70. For the same compound, the “Pigweed plant response rating (0 to 100 scale, 0 is no effect, 100 is complete control)” value [5, 21] was 90, the “Plant response rating, Kochia” value (Kochia (Kochia scoparia) [6]; [20]) was 30 and the “Kochia plant response rating (0 to 100 scale, 0 is no effect, 100 is complete control)” value (Kochia (Kochia scoparia) [6]; [21]) was 70. For the same compound, the “Plant response rating, Barnyardgrass” value [7] was 40, the “Plant response rating, Rice” value (rice (Oryra sativa)) was 25 and the “Plant response rating, Ducksalad” value [8] was 100. The “Plant response rating, Sedge, Umbrella” value [9] was 0, the “Blackgrass plant response rating” value [10, 22] was 60 and the “Plant response rating, Blackgrass” value [10, 23] was 60. The “Ryegrass, Italian plant response rating” value [11, 22] was 60, the “Plant response rating, Ryegrass, Italian” value [11, 23] was 40 and the “Ragweed plant response rating” value [12, 22] was 20. For the same compound, the “Plant response rating, Ragweed” value [12, 23] was 60, the “Barnyardgrass plant response rating” value [13, 22] was 80 and the “Plant response rating, Barnyardgrass” value [13, 23] was 90. For the same compound, the “Foxtail, Giant plant response rating” value [14, 22] was 80, the “Plant response rating, Foxtail, Giant” value [14, 23] was 90 and the “Corn plant response rating” value (corn (Zea mays); [22]) was 60. For the same compound, the “Plant response rating, Corn” value (corn (Zea mays); [23]) was 70, the “Wheat plant response rating” value [15, 22] was 40 and the “Plant response rating, Wheat” value [15, 23] was 60. The “Galium plant response rating” value [16, 22] was 60, the “Plant response rating, Galium” value [16, 23] was 60 and the “Pigweed plant response rating” value [17, 22] was 50. For the same compound, the “Plant response rating, Pigweed” value [17, 23] was 60, the “Kochia plant response rating” value (Kochia (Kochia scoparia) [18]; [22]) was 40 and the “Plant response rating, Kochia” value (Kochia (Kochia scoparia) [18]; [23]) was 50. For the same compound, the “Plant response rating, Lambsquarters” value ([19]; 31 g ai/ha) was 10, the “Plant response rating, Lambsquarters” value ([19]; 62 g ai/ha) was 40 and the “Plant response rating, Lambsquarters” value ([19]; 125 g ai/ha) was 50. For the same compound, the “Plant response rating, Lambsquarters” value ([19]; 250 g ai/ha) was 65.
